Experimental data from patent publication US20260216238A1, “TETRATHIOMOLYBDIC ACID FOR USE IN TREATING COPPER METABOLISM-ASSOCIATED DISEASES OR DISORDERS (WILSON DISEASE)” (Alexion Pharmaceuticals, Inc., priority 2023, published 2026).

Test system: patients with Wilson disease (WD)
Assay: UWDRS Part III total score, functional subscale and individual items (neurological examination)
Assay type: in vivo, human
Method: The UWDRS scoring system was developed specifically for the motor and movement disorders associated with chronic copper neurotoxicity in WD. Some individual items/subscales of the UWDRS Part III (arising from a chair, gait, handwriting, and speech) in addition to the UWDRS Parts I, II, and III overall, were assessed to further define the range of burdensome signs and symptoms of WD, so as to further understand the assessment of treatment effects on patients with WD. The UWDRS scores for consciousness (Part I) and abnormal neurologic examination findings (Part III) will be determined by a trained neurologist rater who is blinded to study treatment randomization. These scores were used to provide a rigorous dataset for evaluating changes from baseline.
Unified Wilson Disease Rating Scale (Parts I, II, and III): The UWDRS is a clinical rating scale designed to evaluate the neurological manifestations of WD that generally can be divided into 3 movement disorder syndromes: dystonic, ataxic, and Parkinsonian syndrome. The UWDRS comprises 3 parts: UWDRS Part I (level of consciousness, item 1), UWDRS Part II (a patient-reported review of daily activity items [disability], items 2 to 11), and UWDRS Part III (a detailed neurological examination, items 12 to 34).
The UWDRS Part I and Part III were assessed by a neurologist who is blinded to the treatment randomization, while UWDRS Part II may be reported to a non-blinded member of the study team by the patient, family member, or caregiver. The UWDRS has not been formally evaluated in adolescents. However, the components of Part I (level of consciousness), Part II (patient or caregiver-reported disability) and Part III (neurologic examination findings) were not fundamentally different between adults and adolescents. Patients aged 12 years and older were expected to be able to comply with UWDRS assessments.
Pooled results from all such participants will be integrated together into one timeline to allow analyses of changes in UWDRS, long-term copper control, and long-term safety laboratory data.
Endpoints (directly measured non-ceruloplasmin-bound copper [dNCC], UWDRS III (rater blinded) total and individual item scores, Clinical Global Impression-Improvement [CGI-I]) were evaluated at baseline (BL) and Week 48 (W48). Normalization (score decrease to 0), improvement (≥1 point decrease), stability (no change), or worsening (≥1 point increase) of total and individual UWDRS III item scores were evaluated at W48.

[1] = Week 144, Study 301 TTM long term set
[2] = difference of changes Wk 48 - BL

## bis-choline tetrathiomolybdate [TTM]
[1]
  UWDRS Part III-handwriting (0-4) change from baseline, Mean: −0.5
  UWDRS Part III-speech (0-4) change from baseline, LSM: −0.3
  UWDRS Part III-speech (0-4) change from baseline, Mean: −0.2
Wk 48
  UWDRS symptom: Arising from chair: 86
  UWDRS symptom: Arm and hand Dystonia: 67
  UWDRS symptom: Cervical Dystonia: 82
  UWDRS symptom: Chorea: 91
  UWDRS symptom: Facial Expression: 58
  UWDRS symptom: Finger Taps: 59
  UWDRS symptom: Finger to Nose: 76
  UWDRS symptom: Gait: 63
  UWDRS symptom: Handwriting: 71
  UWDRS symptom: Head Tremor: 89
  UWDRS symptom: Involuntary Crying: 99
  UWDRS symptom: Jaw Tremor: 99
  UWDRS symptom: Leg Ability: 66
  UWDRS symptom: Oculomotor: 87
  UWDRS symptom: Postural Arm Tremor: 58
  UWDRS symptom: Postural Leg Tremor: 73
  UWDRS symptom: Posture: 71
  UWDRS symptom: Pyramidal Signs: 87
  UWDRS symptom: RAM of Hands: 62
  UWDRS symptom: Rigidity: 72
  UWDRS symptom: Speech: 51
  UWDRS symptom: Stereotyped Actions: 89
  UWDRS symptom: Tremor at rest: 76
  UWDRS symptom: Wing-beating tremor: 67
Wk 48 - BL
  UWDRS symptom: Arising from chair, Change (Wk 48 - BL): 1
  UWDRS symptom: Arm and hand Dystonia, Change (Wk 48 - BL): 3
  UWDRS symptom: Cervical Dystonia, Change (Wk 48 - BL): 8
  UWDRS symptom: Chorea, Change (Wk 48 - BL): 1
  UWDRS symptom: Facial Expression, Change (Wk 48 - BL): 1
  UWDRS symptom: Finger Taps, Change (Wk 48 - BL): 15
  UWDRS symptom: Finger to Nose, Change (Wk 48 - BL): 9
  UWDRS symptom: Gait, Change (Wk 48 - BL): 4
  UWDRS symptom: Handwriting, Change (Wk 48 - BL): 16
  UWDRS symptom: Head Tremor, Change (Wk 48 - BL): 5
  UWDRS symptom: Involuntary Crying, Change (Wk 48 - BL): 0
  UWDRS symptom: Jaw Tremor, Change (Wk 48 - BL): 0
  UWDRS symptom: Leg Ability, Change (Wk 48 - BL): 4
  UWDRS symptom: Oculomotor, Change (Wk 48 - BL): −2
  UWDRS symptom: Postural Arm Tremor, Change (Wk 48 - BL): 9
  UWDRS symptom: Postural Leg Tremor, Change (Wk 48 - BL): 5
  UWDRS symptom: Posture, Change (Wk 48 - BL): 4
  UWDRS symptom: Pyramidal Signs, Change (Wk 48 - BL): −2
  UWDRS symptom: RAM of Hands, Change (Wk 48 - BL): 14
  UWDRS symptom: Rigidity, Change (Wk 48 - BL): 14
  UWDRS symptom: Speech, Change (Wk 48 - BL): 7
  UWDRS symptom: Stereotyped Actions, Change (Wk 48 - BL): −4
  UWDRS symptom: Tremor at rest, Change (Wk 48 - BL): 1
  UWDRS symptom: Wing-beating tremor, Change (Wk 48 - BL): 3
[2]
  UWDRS symptom: Arising from chair, Difference (TTM − SoC): 4
  UWDRS symptom: Arm and hand Dystonia, Difference (TTM − SoC): 3
  UWDRS symptom: Cervical Dystonia, Difference (TTM − SoC): 5
  UWDRS symptom: Chorea, Difference (TTM − SoC): 6
  UWDRS symptom: Facial Expression, Difference (TTM − SoC): 4
  UWDRS symptom: Finger Taps, Difference (TTM − SoC): 20
  UWDRS symptom: Finger to Nose, Difference (TTM − SoC): 6
  UWDRS symptom: Gait, Difference (TTM − SoC): 2
  UWDRS symptom: Handwriting, Difference (TTM − SoC): 13
  UWDRS symptom: Head Tremor, Difference (TTM − SoC): 9
  UWDRS symptom: Involuntary Crying, Difference (TTM − SoC): 3
  UWDRS symptom: Jaw Tremor, Difference (TTM − SoC): 0
  UWDRS symptom: Leg Ability, Difference (TTM − SoC): 11
  UWDRS symptom: Oculomotor, Difference (TTM − SoC): 9
  UWDRS symptom: Postural Arm Tremor, Difference (TTM − SoC): 8
  UWDRS symptom: Postural Leg Tremor, Difference (TTM − SoC): 9
  UWDRS symptom: Posture, Difference (TTM − SoC): 1
  UWDRS symptom: Pyramidal Signs, Difference (TTM − SoC): 4
  UWDRS symptom: RAM of Hands, Difference (TTM − SoC): 31
  UWDRS symptom: Rigidity, Difference (TTM − SoC): 5
  UWDRS symptom: Speech, Difference (TTM − SoC): 0
  UWDRS symptom: Stereotyped Actions, Difference (TTM − SoC): 1
  UWDRS symptom: Tremor at rest, Difference (TTM − SoC): 4
  UWDRS symptom: Wing-beating tremor, Difference (TTM − SoC): 9
